Measured values reported in patent publication US10563272B2, “Compositions comprising Metarhizium fungi and use thereof as a pesticide” (Cotton Research and Development Corporation, priority 2015, dated 2020).

Key:
[1] = test system: predatory bugs; assay: Foliar spray trial on Bollgard II cotton, Norwood 2010-11 (Example 7): predatory bugs; format: in vivo, Hemiptera (Nabidae, Lygaeidae, Pentatomidae); details: fipronil 62.5 mL/ha; for number of predatory bugs per meter: 1st spray, BC 667/DAT 511 0.50 L/ha; for number of predatory bugs per metre: 2nd spray, BC 667/DAT 511 0.5 L/ha
Experimental: (§1) The trial was conducted on commercial Bollgard II® cotton crops at Norwood near Moree, NSW from 5 Dec. 2010 to 19 Feb. 2011. The cotton was at the early squaring stage, when it was attractive to green mirids (Khan et al. 2004).
(§2) The study evaluated the efficacy of the following treatments against green mirids, green vegetable bugs and predatory insects: • 1. 500 mL/ha BC 667 spore in oil (1×10^7 spores/ml); • 2. 500 mL/ha DAT 511 spore in oil (1×10^7 spores/ml); • 3. 62.5 mL/ha Fipronil (conventional insecticide); and • 4. Unsprayed (control).
(§3) The treatment plots were arranged in a randomized complete block design with four replicates per treatment. Each replicated plot measured 0.5 ha. Foliar application of each treatment was made on 18 Jan. 2011 using a ground spray rig fitted with flat fan nozzles to achieve a droplet size of 80 250 μm. The treatment was applied in the mornings when temperature was between 20° C. and 28° C. The timing of treatment was based on an economic threshold of 0.5 green mirids per metre, the IPM guideline and recommendation by CottonLogic.
(§4) Pre-treatment counts of green mirid adults and nymphs, predatory beetles, predatory bugs, predatory lacewings and spiders were made by visual inspection of whole cotton plants. Both adults and nymphs of the beneficial insects were counted. Plants were assessed in randomly selected one-metre lengths of row of each treatment replicate (i.e. four metres per treatment). In all, two spray applications of each treatment were made. The first spray was made on 18 Jan. 2011. Post-treatment counts of the first spray application were taken 3, 7 and 14 days after treatment (DAT) (first spray). A second spray application was done on 1 Feb. 2011 when green mirid adults plus nymphs reached the threshold of 0.5 per metre. Post-treatment counts of the second spray application were taken 3, 7, 14, 21 and 28 DAT. Data are expressed as numbers of individuals of that species counted per metre for each treatment.

[2] = test system: predatory beetles; assay: Foliar spray trial on Bollgard II cotton, Norwood 2010-11 (Example 7): predatory beetles; format: in vivo, Coleoptera (Coccinellidae, Melyridae); details: fipronil 62.5 mL/ha; for number of predatory beetles per meter: 1st spray, BC 667/DAT 511 0.50 L/ha; for number of predatory beetles per metre: 2nd spray, BC 667/DAT 511 0.5 L/ha
Experimental: as §1, §2, §3, §4

[3] = test system: green mirid adults and nymphs; assay: Bollgard II cotton, Auscott-Togo 2012-13, Field 77 (Experiment 1): green mirids; format: in vivo, Creontiades dilutus; details: 62.5 mL/ha
Experimental: (§5) Two separate trials (Experiment 1 in Field 77; Experiment 2 in Field 63) were conducted in Bollgard II cotton crops on a commercial cotton farm at Auscott-Togo near Narrabri, New South Wales from 11 Feb. to 5 Mar. 2013 (Field 77) and 19 Feb. to 6 Mar. 2013 (Field 63). The cotton used for each of the trials was at the late squaring to pod setting and maturation stages which was fairly attractive to green mirids.
(§6) In both trials, the efficacy of the following treatments against green mirids and predatory insects was evaluated: • 1. 250 mL/ha DAT 511 spore in oil (1×10^7 spores/ml); • 2. 500 mL/ha DAT 511 spore in oil (1×10^7 spores/ml); • 3. 1 L/ha DAT 511 spore in oil (1×10^7 spores/ml); • 4. 62.5 mL/ha of fipronil; and • 5. Unsprayed (negative control).
(§7) The treatment plots were arranged in a randomized complete block design with six replicates per treatment. Each replicated plot measured 40 m wide (40 rows) and 90 m long.
(§8) Foliar application of each treatment was made on 28 Feb. (for both green mirids and beneficial insects) and 13 Mar. 2012 (for beneficial insects alone) using a ground spray rig fitted with flat fan nozzles to achieve a droplet size of 200 μm. The treatment was applied during the mornings when temperatures were between 20° C. and 28° C. The timing of treatment was based on the IPM Guidelines and recommendations by CottonLogic to use an economic threshold of 0.5 green mirids per metre (Deutscher and Wilson 1999; Khan et al. 2004).
(§9) Pre-treatment counts of green mirid adults and nymphs, predatory beetles, predatory bugs, predatory lacewings and spiders were made by visual inspection of whole cotton plants. Both adults and nymphs of beneficial insects were counted. Plants were assessed in randomly selected one-metre lengths of row of each replicate (i.e. 6 m per treatment). Post-treatment counts were made 3, 7, 14 and 21 days after treatment. Data are expressed as numbers of green mirid adults and nymphs counted per metre for each treatment.

[4] = test system: predatory bugs; assay: Bollgard II cotton, Auscott-Togo 2012-13, Field 77 (Experiment 1): predatory bugs; format: in vivo, Hemiptera (Nabidae, Lygaeidae, Pentatomidae); details: 62.5 mL/ha
Experimental: as §5, §6, §7, §8, §9

N#Cc1nn(-c2c(Cl)cc(C(F)(F)F)cc2Cl)c(N)c1[S+]([O-])C(F)(F)F (stereo not drawn) [fipronil]
number of predatory bugs per meter ([1]; 3 DAT): 0.33 ± 0.33 a per meter | number of predatory bugs per meter ([1]; 7 DAT): 0.67 ± 0.33 a per meter | number of predatory bugs per meter ([1]; 14 DAT): 1.33 ± 0.33 a per meter | number of predatory bugs per meter ([1]; pre-spray counts 18 Jan. 2011): 0.67 ± 0.33 a per meter | number of predatory bugs per metre ([1]; 3 DAT): 0.33 ± 0.33a per metre | number of predatory bugs per metre ([1]; 7 DAT): 0.33 ± 0.33a per metre | number of predatory bugs per metre ([1]; 14 DAT): 0.67 ± 0.33a per metre | number of predatory bugs per metre ([1]; 21 DAT): 1.00 ± 0.58a per metre | number of predatory bugs per metre ([1]; 28 DAT): 0.67 ± 0.33a per metre | number of predatory bugs per metre ([1]; pre-spray counts 1 Feb. 2011): 1.33 ± 0.33a per metre | number of predatory beetles per meter ([2]; 3 DAT): 0.00 ± 0.00 a per meter | number of predatory beetles per meter ([2]; 7 DAT): 0.00 ± 0.00 a per meter | number of predatory beetles per meter ([2]; 14 DAT): 0.00 ± 0.00 a per meter | number of predatory beetles per meter ([2]; pre-spray counts 18 Jan. 2011): 0.67 ± 0.33 a per meter | number of predatory beetles per metre ([2]; 3 DAT): 0.33 ± 0.33a per metre | number of predatory beetles per metre ([2]; 7 DAT): 0.33 ± 0.33a per metre | number of predatory beetles per metre ([2]; 14 DAT): 0.00 ± 0.00a per metre | number of predatory beetles per metre ([2]; 21 DAT): 1.00 ± 0.58a per metre | number of predatory beetles per metre ([2]; 28 DAT): 0.67 ± 0.33a per metre | number of predatory beetles per metre ([2]; pre-spray counts 1 Feb. 2011): 0.00 ± 0.00a per metre | No. green mirid adults and nymphs per meter ([3]; 3 DAT): 1.33 ± 0.33 a per meter | No. green mirid adults and nymphs per meter ([3]; 7 DAT): 0.00 ± 0.00 b per meter | No. green mirid adults and nymphs per meter ([3]; 14 DAT): 0.00 ± 0.00 a per meter | No. green mirid adults and nymphs per meter ([3]; 21 DAT): 0.00 ± 0.00 a per meter | No. green mirid adults and nymphs per meter ([3]; pre-spray counts): 4.33 ± 0.67 a per meter | number of predatory bugs per meter ([4]; 3 DAT): 0.33 ± 0.00 a per meter | number of predatory bugs per meter ([4]; 7 DAT): 0.00 ± 0.00 a per meter | number of predatory bugs per meter ([4]; 14 DAT): 0.00 ± 0.00 a per meter | number of predatory bugs per meter ([4]; 21 DAT): 0.67 ± 0.33 a per meter | number of predatory bugs per meter ([4]; pre-spray counts): 0.33 ± 0.33 a per meter
